Results reported in the supplement of paper PMC10307832.

Tests used:
Experiment in all cases: relative viability (nuclei count vs DMSO), 5 days (fraction); higher = more cells survive
17-AAG + Trametinib = compound: C=CCNC1=C2C[C@@H](C)C[C@H](OC)[C@H](O)[C@@H](C)/C=C(\C)[C@H](OC(N)=O)[C@@H](OC)/C=C\C=C(/C)C(=O)NC(=CC1=O)C2=O [17-AAG] + CC(=O)Nc1cccc(-n2c(=O)n(C3CC3)c(=O)c3c(Nc4ccc(I)cc4F)n(C)c(=O)c(C)c32)c1 [Trametinib] (partner 0.02 µM)
Summary of the method: (§1)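 Relative viability was taken as the ratio of nuclei in treated wells to nuclei in vehicle wells. Lung cancer cell lines in 1536-well plates received compounds by pin tool one day after seeding, either one drug alone or a fixed anchor-drug dose plus five library-drug doses (not always all listed) in √10 steps. Nuclei were counted on 4× images after 5 days of treatment, and values are medians of duplicate plates.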

17-AAG + Bortezomib = compound: C=CCNC1=C2C[C@@H](C)C[C@H](OC)[C@H](O)[C@@H](C)/C=C(\C)[C@H](OC(N)=O)[C@@H](OC)/C=C\C=C(/C)C(=O)NC(=CC1=O)C2=O [17-AAG] + CC(C)C[C@H](NC(=O)[C@H](Cc1ccccc1)NC(=O)c1cnccn1)B(O)O [Bortezomib] (partner 0.002 µM)
Summary of the method: as §1

17-AAG + Pictilisib = compound: C=CCNC1=C2C[C@@H](C)C[C@H](OC)[C@H](O)[C@@H](C)/C=C(\C)[C@H](OC(N)=O)[C@@H](OC)/C=C\C=C(/C)C(=O)NC(=CC1=O)C2=O [17-AAG] + CS(=O)(=O)N1CCN(Cc2cc3nc(-c4cccc5[nH]ncc45)nc(N4CCOCC4)c3s2)CC1 [Pictilisib] (partner 1 µM)
Summary of the method: as §1

17-AAG + Olaparib = compound: C=CCNC1=C2C[C@@H](C)C[C@H](OC)[C@H](O)[C@@H](C)/C=C(\C)[C@H](OC(N)=O)[C@@H](OC)/C=C\C=C(/C)C(=O)NC(=CC1=O)C2=O [17-AAG] + O=C(c1cc(Cc2n[nH]c(=O)c3ccccc23)ccc1F)N1CCN(C(=O)C2CC2)CC1 [Olaparib] (partner 8 µM)
Summary of the method: as §1

| Cell Line | relative viability (17-AAG + Trametinib; first compound 0.00128 µM) | relative viability (17-AAG + Trametinib; first compound 0.004048 µM) | relative viability (17-AAG + Trametinib; first compound 0.0128 µM) | relative viability (17-AAG + Trametinib; first compound 0.04048 µM) | relative viability (17-AAG + Trametinib; first compound 0.128 µM) | relative viability (17-AAG + Bortezomib; first compound 0.00128 µM) | relative viability (17-AAG + Bortezomib; first compound 0.004048 µM) | relative viability (17-AAG + Bortezomib; first compound 0.0128 µM) | relative viability (17-AAG + Bortezomib; first compound 0.04048 µM) | relative viability (17-AAG + Bortezomib; first compound 0.128 µM) | relative viability (17-AAG + Pictilisib; first compound 0.00128 µM) | relative viability (17-AAG + Pictilisib; first compound 0.004048 µM) | relative viability (17-AAG + Pictilisib; first compound 0.0128 µM) | relative viability (17-AAG + Pictilisib; first compound 0.04048 µM) | relative viability (17-AAG + Pictilisib; first compound 0.128 µM) | relative viability (17-AAG + Olaparib; first compound 0.00128 µM) | relative viability (17-AAG + Olaparib; first compound 0.004048 µM) | relative viability (17-AAG + Olaparib; first compound 0.0128 µM) | relative viability (17-AAG + Olaparib; first compound 0.04048 µM) | relative viability (17-AAG + Olaparib; first compound 0.128 µM) |
| --- | --- | --- | --- | --- | --- | --- | --- | --- | --- | --- | --- | --- | --- | --- | --- | --- | --- | --- | --- | --- |
| HARA | 0.893 | 0.598 | 0.81 | 0.66 | 0.149 | 1.08 | 1.11 | 1.14 | 1.14 | 0.187 | 0.49 | 0.445 | 0.385 | 0.16 | 0.164 | 0.891 | 0.78 | 1.02 | 1.18 | 0.18 |
| HCC-15 | 0.415 | 0.416 | 0.286 | 0.214 | 0.13 | 1.01 | 0.816 | 0.502 | 0.542 | 0.127 | 0.73 | 0.774 | 0.508 | 0.187 | 0.121 | 0.726 | 0.71 | 0.306 | 0.332 | 0.15 |
| HCC-44 | 1.04 | 1.01 | 0.988 | 1.05 | 0.804 | 0.865 | 0.854 | 0.903 | 0.466 | 0.142 | 0.623 | 0.564 | 0.319 | 0.152 | 0.113 | 0.976 | 0.989 | 1 | 0.997 | 0.492 |
| IA-LM | – | – | – | – | – | 0.886 | 0.604 | 0.766 | 0.326 | 0.0846 | 0.325 | 0.366 | 0.182 | 0.0706 | 0.0517 | 0.89 | 0.919 | 0.68 | 0.179 | 0.0981 |
| LK-2 | 0.85 | 0.846 | 0.789 | 0.577 | 0.184 | – | – | – | – | – | 0.725 | 0.659 | 0.6 | 0.208 | 0.175 | 0.831 | 0.765 | 0.266 | 0.149 | 0.123 |
| NCI-H358 | 0.128 | 0.0832 | 0.0659 | 0.0673 | 0.0679 | – | – | – | – | – | 0.392 | 0.219 | 0.125 | 0.131 | 0.126 | 0.606 | 0.522 | 0.0873 | 0.0667 | 0.0637 |
| NCI-H522 | 0.724 | 0.836 | 0.679 | 0.686 | 0.374 | – | – | – | – | – | – | – | – | – | – | 0.517 | 0.878 | 0.505 | 0.485 | 0.399 |
| NCI-H1299 | – | – | – | – | – | 1.06 | 0.977 | 1.01 | 0.948 | 0.665 | 0.802 | 0.791 | 0.698 | 0.151 | 0.0717 | 1.01 | 0.922 | 0.965 | 0.605 | 0.282 |
| NCI-H1395 | 1.09 | 0.984 | 0.807 | 0.448 | 0.368 | – | – | – | – | – | 0.659 | 0.614 | 0.381 | 0.354 | 0.435 | 0.452 | 0.458 | 0.359 | 0.37 | 0.418 |
| NCI-H1563 | – | – | – | – | – | 0.855 | 0.702 | 0.597 | 0.573 | 0.469 | 0.67 | 0.647 | 0.604 | 0.614 | 0.563 | – | – | – | – | – |
| NCI-H1648 | – | 0.541 | 0.463 | 0.368 | 0.219 | – | – | – | – | – | – | – | – | – | – | – | 0.716 | 0.921 | 0.9 | 0.317 |
| NCI-H1703 | – | – | – | – | – | 0.316 | 0.154 | 0.145 | 0.153 | 0.138 | 0.235 | 0.181 | 0.188 | 0.168 | 0.141 | 0.512 | 0.183 | 0.144 | 0.164 | 0.105 |
| NCI-H1793 | 0.36 | 0.318 | 0.273 | 0.18 | 0.142 | – | – | – | – | – | 0.309 | 0.172 | 0.193 | 0.188 | 0.144 | 0.903 | 0.594 | 0.184 | 0.198 | 0.141 |
| NCI-H1944 | 0.452 | 0.368 | 0.379 | 0.24 | 0.155 | – | – | – | – | – | 0.352 | 0.349 | 0.324 | 0.28 | 0.24 | 0.4 | 0.413 | 0.383 | 0.335 | 0.137 |
| NCI-H2170 | 0.958 | 0.843 | 0.91 | 0.402 | 0.134 | – | – | – | – | – | 0.279 | 0.284 | 0.167 | 0.153 | 0.175 | 0.663 | 0.565 | 0.466 | 0.129 | 0.12 |
| NCI-H2342 | 0.8 | 0.799 | 0.79 | 0.631 | 0.7 | – | – | – | – | – | – | – | – | – | – | 0.506 | 0.4 | 0.487 | 0.437 | 0.374 |
| SK-MES-1 | 0.562 | 0.401 | 0.221 | 0.179 | 0.168 | – | – | – | – | – | 0.414 | 0.387 | 0.139 | 0.134 | 0.1 | 0.732 | 0.494 | 0.184 | 0.17 | 0.16 |
| SW 900 | 0.587 | 0.513 | 0.208 | 0.128 | 0.153 | – | – | – | – | – | – | – | – | – | – | 0.892 | 0.491 | 0.244 | 0.192 | 0.163 |
